Laboratory results reported in PubChem BioAssay AID2612 (Southern Research Specialized Biocontainment Screening …, 2010).
Activity calls are given as the source filed them. No rule for the calls is given here.

Assays:
[1] = compound effect on polymyxin resistance, Typhi, OD600 (AID 2612); details: Salmonella Typhi WT vs phoP-, polymyxin IC50 shift, OD600 24 h, at 150 µM; for polymyxin IC50 shift difference (WT - phoP-): stronger effect = higher value; for IC50 shift: measured here: polymyxin IC50 shift
[2] = tested on: Salmonella Typhi WT vs phoP-, polymyxin IC50 shift, OD600 24 h; assay: as above

O=C(Nc1ccc(Cl)cc1)N1CCCN(Cc2ccccc2F)C1
polymyxin IC50 shift difference (WT - phoP-) [1]: -11.9 (inactive)
IC50 shift ([1]; WT strain): -12.1
IC50 shift ([1]; phoP- strain): -0.267
IC50 ([2]; WT polymyxin IC50 at 150 uM): 14.9 µM
IC50 ([2]; phoP- polymyxin IC50 at 150 uM): 3.07 µM

O=C1C2=C(Nc3ccccc3SC2c2ccco2)c2ccccc21 (centres undefined)
IC50 shift ([1]; WT strain): 1.28
IC50 shift ([1]; phoP- strain): -24.4
IC50 [2]: 4 µM
IC50 ([2]; WT polymyxin IC50 at 150 uM): 1.47 µM
IC50 ([2]; phoP- polymyxin IC50 at 150 uM): 27.4 µM

Cc1ccc(Nc2cc(C)c3c(O)cccc3n2)cc1C
polymyxin IC50 shift difference (WT - phoP-) [1]: 0.62 (inactive)
IC50 shift ([1]; WT strain): 2.64
IC50 shift ([1]; phoP- strain): 2.02
IC50 ([2]; phoP- polymyxin IC50 at 150 uM): 0.893 µM

CCn1cc(C(=O)O)c(=O)c2cc(F)c(N3CCN(C(=S)NC(=O)c4ccccc4Cl)CC3)cc21
polymyxin IC50 shift difference (WT - phoP-) [1]: -3.77 (inactive)
IC50 shift ([1]; WT strain): -1.35
IC50 shift ([1]; phoP- strain): 2.42
IC50 ([2]; WT polymyxin IC50 at 150 uM): 3.45 µM
IC50 ([2]; phoP- polymyxin IC50 at 150 uM): 0.0339 µM

S=C(NCc1ccc(Cl)cc1)Nc1ccncc1
IC50 shift ([1]; WT strain): -0.561
IC50 shift ([1]; phoP- strain): -25.9
IC50 [2]: 20 µM
IC50 ([2]; WT polymyxin IC50 at 150 uM): 0.669 µM
IC50 ([2]; phoP- polymyxin IC50 at 150 uM): 28.8 µM

COc1c(N2CCN(C(=S)NCc3ccccc3)C(C)C2)c(F)cc2c(=O)c(C(=O)O)cn(C3CC3)c12 (centres undefined)
polymyxin IC50 shift difference (WT - phoP-) [1]: -3.42 (inactive)
IC50 shift ([1]; WT strain): -4.5
IC50 shift ([1]; phoP- strain): -1.08
IC50 ([2]; WT polymyxin IC50 at 150 uM): 7.25 µM
IC50 ([2]; phoP- polymyxin IC50 at 150 uM): 3.83 µM
